Results reported in paper PMC11859181, “Alternaria alternata (Fr) Keissl Crude Extract Inhibits HIV Subtypes and Integrase Drug-Resistant Strains at Different Stages of HIV Replication” (Pharmaceuticals, 2025).
In brackets after ≈: the same amount, converted by molar mass. Like-named read-outs stand apart in the source and are kept apart here.

Tests used:
[1] = tested on: PC 148 (subtype A) HIV-1 virus; assay: microbe, parasite or virus in culture; format: cell-based; conditions: Human immunodeficiency virus 1, TZM-bl
[2] = tested on: pNL4.3 (subtype B) HIV-1 virus; assay: Luciferase-based antiviral assay, pNL4.3 (wild type); format: cell-based
[3] = tested on: CM9 (subtype C) HIV-1 virus; assay: microbe, parasite or virus in culture; format: cell-based; conditions: Human immunodeficiency virus 1, TZM-bl
[4] = tested on: CM7 (subtype C) HIV-1 virus; assay: microbe, parasite or virus in culture; format: cell-based; conditions: Human immunodeficiency virus 1, TZM-bl
[5] = tested on: MC 2297 (subtype A) HIV-1 virus; assay: microbe, parasite or virus in culture; format: cell-based; conditions: Human immunodeficiency virus 1, TZM-bl
[6] = tested on: YU2 (subtype B) HIV-1 virus; assay: microbe, parasite or virus in culture; format: cell-based; conditions: Human immunodeficiency virus 1, TZM-bl
[7] = tested on: PC 60 (subtype D) HIV-1 virus; assay: microbe, parasite or virus in culture; format: cell-based; conditions: Human immunodeficiency virus 1, TZM-bl
[8] = tested on: PC 178 (subtype D) HIV-1 virus; assay: microbe, parasite or virus in culture; format: cell-based; conditions: Human immunodeficiency virus 1, TZM-bl
[9] = MTT cell viability and cytotoxicity assay; format: cell-based; conditions: human, TZM-bl cells
Description: A. alternata crude extract cell cytotoxicity and viability were assessed by MTT (3-[4, 5-dimethylthiazol-2-yl]-2, 5-diphenyltetrazolium bromide) cell viability assay using the CYQUANT MTT cell proliferation kit (Thermo Fisher Scientific, Waltham, MA, USA). A 96-well culture plate was seeded with 15,000 TZM-bl cells/200 µL of DMEM per well and incubated at 37 °C with 5% CO2.). Following this, 10 µL of the drug control azidothymidine (NIH AIDS Research and Reference Reagent Programme) and the A. alternata crude extract were diluted five-fold, and control wells where neither the control drug AZT nor the crude extract was added were followed by incubation at 37 °C with 5% CO2 and 95% humidity for 48 h. Ten microlitres of 12 mM of MTT solution was added to each well and incubated for 4 h at 37 °C with 5% CO2 and 95% humidity. Then, 50 µL of 100% DMSO were added to each well and incubated for 10 min. The absorbance was then measured at a wavelength of 540 nm using the Victor Nivo microplate reader (PerkinElmer, Waltham, MA, USA). The percentage of cell viability was calculated using the formula below:%Cell viability = (Sample absorbance − media control)/(Mean media control absorbance) × 100
The drug control azidothymidine and A. alternata crude extract CC50 (50% cytotoxic concentration) were determined using GraphPad Prism software (v.5) by dose-response curve.

[10] = tested on: integrase drug-resistant strain S230R; conditions: previously reported; cited from earlier work
[11] = tested on: integrase drug-resistant strain T66K; assay: microbe, parasite or virus in culture; format: cell-based, HIV-1; conditions: for IC50: Human immunodeficiency virus 1, TZM-bl, read-out: IC50 (T66K); for inhibition at 300 µg/mL: Human immunodeficiency virus 1, read-out: inhibition of HIV replication; for fold change (FC) T66K: drug-resistant strain IC50/wild-type IC50
[12] = tested on: integrase drug-resistant strain S230R; assay: microbe, parasite or virus in culture; format: cell-based, HIV-1; conditions: for IC50: Human immunodeficiency virus 1, TZM-bl, read-out: IC50 (S230R); for inhibition at 300 µg/mL: Human immunodeficiency virus 1, read-out: inhibition of HIV replication; for fold change (FC) S230R: drug-resistant strain IC50/wild-type IC50
[13] = tested on: integrase drug-resistant strain T66K; design: method as in PMID 18625269; conditions: previously reported; cited from earlier work
[14] = Human immunodeficiency virus 1, read-out: IC50 (WT)

Cc1cn([C@H]2C[C@H](N=[N+]=[N-])[C@@H](CO)O2)c(=O)[nH]c1=O [Azidothymidine, azidothymidine]
IC50 [1]: 0.0403 ± 0.002 µg/mL (≈ 0.151 µM) | IC50 ([2]; Human immunodeficiency virus 1, TZM-bl): 0.0338 ± 0.004 µg/mL (≈ 0.126 µM) | IC50 [3]: 0.0924 ± 0.007 µg/mL (≈ 0.346 µM) | IC50 [4]: 0.058 ± 0.009 µg/mL (≈ 0.217 µM) | IC50 [5]: 0.0138 ± 0.001 µg/mL (≈ 0.0518 µM) | IC50 [6]: 0.0423 ± 0.004 µg/mL (≈ 0.158 µM) | IC50 [7]: 0.078 ± 0.005 µg/mL (≈ 0.292 µM) | IC50 [8]: 0.0813 ± 0.003 µg/mL (≈ 0.304 µM) | viability at 48 h [9]: > 80% | CC50 at 48 h ([9]; 48 h, triplicate): 385 ± 6.29 µg/mL (≈ 1440 µM)

C[C@@H]1CCO[C@H]2Cn3cc(C(=O)NCc4ccc(F)cc4F)c(=O)c(O)c3C(=O)N12 [Dolutegravir, dolutegravir]
FC in susceptibility conferred by S230R mutation [10]: 3.85 | IC50 [11]: 0.327 ± 0.031 µg/mL (≈ 0.78 µM) | inhibition at 300 µg/mL [11]: 100% | fold change (FC) T66K [11]: 1.864 | IC50 [2, 14]: 0.175 ± 0.019 µg/mL (≈ 0.418 µM) | IC50 [12]: 0.383 ± 0.04 µg/mL (≈ 0.914 µM) | inhibition at 300 µg/mL [12]: 100% | fold change (FC) S230R [12]: 2.166 | FC conferred by T66K mutation [13]: 2

Cc1nnc(C(=O)NC(C)(C)c2nc(C(=O)NCc3ccc(F)cc3)c(O)c(=O)n2C)o1 [Raltegravir, raltegravir]
FC in susceptibility conferred by S230R mutation [10]: 1.52 | IC50 [11]: 0.479 ± 0.078 µg/mL (≈ 1.08 µM) | inhibition at 300 µg/mL [11]: 100% | fold change (FC) T66K [11]: 13.15 | IC50 [2, 14]: 0.0364 ± 0.001 µg/mL (≈ 0.082 µM) | IC50 [12]: 0.0475 ± 0.0016 µg/mL (≈ 0.107 µM) | inhibition at 300 µg/mL [12]: 100% | fold change (FC) S230R [12]: 1.305 | FC conferred by T66K mutation [13]: 9.6
